Measurements as given in ChEMBL document CHEMBL1201862, “PubChem BioAssay data set” (2004).
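Tested at 5 concentrations; 48 h exposure; 96-well plates; endpoints linearly interpolated, else capped at highest concentration. GI50 marks 50% less growth.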 The source made the active and inactive calls. No stated cut-off is given here; in the data, active = GI50 up to about 1.1 µM and inactive = higher.

How the values were obtained:
Experiment in all cases: NCI-60 cell line screen, 48 h
[1] = system: HOP-62
[2] = system: OVCAR-8
[3] = system: 786-0
[4] = system: HT-29
[5] = system: NCI-H23
[6] = system: OVCAR-3
[7] = system: OVCAR-4
[8] = system: SW-620
[9] = system: SF-295
[10] = system: A549
[11] = system: SK-MEL-2
[12] = system: SR
[13] = system: SK-MEL-28
[14] = system: M14
[15] = system: OVCAR-5
[16] = system: LOX IMVI
[17] = system: UACC-62
[18] = system: MCF7
[19] = system: M19-MEL
[20] = system: LXFL 529

| SMILES | GI50 [1] | GI50 [2] | GI50 [3] | GI50 [4] | GI50 [5] | GI50 [6] | GI50 [7] | GI50 [8] | GI50 [9] | GI50 [10] | GI50 [11] | GI50 [12] | GI50 [13] | GI50 [14] | GI50 [15] | GI50 [16] | GI50 [17] | GI50 [18] | GI50 [19] | GI50 [20] |
| --- | --- | --- | --- | --- | --- | --- | --- | --- | --- | --- | --- | --- | --- | --- | --- | --- | --- | --- | --- | --- |
| CCOC(=O)c1c(SCCN2CCCC2)n(-c2ccccc2)c(=S)n(-c2ccccc2)c1=O | 18.5 µM (inactive) | 1.95 µM (inactive) | 1.55 µM (inactive) | 4.89 µM (inactive) | 9.57 µM (inactive) | 1.78 µM (inactive) | 13.1 µM (inactive) | 2.6 µM (inactive) | 28.3 µM (inactive) | 4.02 µM (inactive) | 11.4 µM (inactive) | 0.457 µM (active) | 2.75 µM (inactive) | 1.75 µM (inactive) | 26.9 µM (inactive) | 1.82 µM (inactive) | 2.79 µM (inactive) | 1.19 µM (inactive) |  |  |
| O=C(N/N=C/c1cc(Br)ccc1O)N/N=C/c1cc(Br)ccc1O | 4.46 µM (inactive) | 2.54 µM (inactive) | 4.93 µM (inactive) | 5.97 µM (inactive) | 2.31 µM (inactive) |  | 3.72 µM (inactive) | 1.73 µM (inactive) | 3.84 µM (inactive) | 1.56 µM (inactive) |  | 3.5 µM (inactive) | > 100 µM (inactive) |  | 2.84 µM (inactive) | 5.85 µM (inactive) | 2.24 µM (inactive) |  | > 100 µM (inactive) |  |
| C=CCN(N=O)C(=O)N(CCCCC(NC(C)=O)C(=O)NCc1ccccc1)Cc1ccccc1 (centres undefined) | 57.9 µM (inactive) | 35.2 µM (inactive) | 28.6 µM (inactive) | 19.5 µM (inactive) | 46.5 µM (inactive) | 30.3 µM (inactive) | 25.9 µM (inactive) | 33.8 µM (inactive) | 31 µM (inactive) | 38.5 µM (inactive) | 37.1 µM (inactive) |  | 44.1 µM (inactive) | 22.6 µM (inactive) | > 100 µM (inactive) | 21.7 µM (inactive) | 34.6 µM (inactive) |  | 35.2 µM (inactive) | 31.1 µM (inactive) |
| O=C1NC(=O)C2C(=O)NC(=O)C1C2(c1ccccc1)c1cc[nH]c1 (centres undefined) | > 100 µM (inactive) | > 100 µM (inactive) | > 100 µM (inactive) | > 100 µM (inactive) | > 100 µM (inactive) | > 100 µM (inactive) | > 100 µM (inactive) | > 100 µM (inactive) | > 100 µM (inactive) | > 100 µM (inactive) | > 100 µM (inactive) |  | > 100 µM (inactive) | > 100 µM (inactive) | > 100 µM (inactive) | > 100 µM (inactive) | > 100 µM (inactive) |  | > 100 µM (inactive) | > 100 µM (inactive) |
| CC(C)(C)C1=Cc2cc3cc(C(C)(C)C)[nH]c(=O)c3cc2S(=O)(=O)N1 | 22.3 µM (inactive) | 39.8 µM (inactive) | 26.2 µM (inactive) | 22.9 µM (inactive) | 29.9 µM (inactive) | 19 µM (inactive) | 24.6 µM (inactive) | 21 µM (inactive) | 28.5 µM (inactive) | 23.2 µM (inactive) | 18.7 µM (inactive) | 23.7 µM (inactive) | 31.3 µM (inactive) | 14.6 µM (inactive) | 33.7 µM (inactive) |  | 18.4 µM (inactive) |  | 19.7 µM (inactive) | 25.2 µM (inactive) |
| N#Cc1c(-c2ccccc2)cc(-c2ccc(N)cc2)[nH]c1=O | > 100 µM (inactive) | > 100 µM (inactive) | > 100 µM (inactive) | > 100 µM (inactive) | > 100 µM (inactive) | > 100 µM (inactive) | > 100 µM (inactive) | > 100 µM (inactive) | > 100 µM (inactive) | > 100 µM (inactive) |  | > 100 µM (inactive) | > 100 µM (inactive) | > 100 µM (inactive) | > 100 µM (inactive) | > 100 µM (inactive) | > 100 µM (inactive) |  | > 100 µM (inactive) | > 100 µM (inactive) |
| CCN1CCN(c2ccc(Nc3ccnc4ccc5nn(C)nc5c34)cc2)CC1 | 13.1 µM (inactive) | 9.71 µM (inactive) | 10.4 µM (inactive) | 4.26 µM (inactive) | 15.4 µM (inactive) | 13.5 µM (inactive) | 11.9 µM (inactive) | 4.22 µM (inactive) | 12.4 µM (inactive) | 13.8 µM (inactive) |  | 4.22 µM (inactive) | 16.6 µM (inactive) | 16.1 µM (inactive) | 15.9 µM (inactive) | 7.18 µM (inactive) | 16.9 µM (inactive) |  | 16.1 µM (inactive) | 10.7 µM (inactive) |
| O=C1CC[C@H]2CNC(=O)C[C@H]2C1 | > 100 µM (inactive) | > 100 µM (inactive) | > 100 µM (inactive) | > 100 µM (inactive) | > 100 µM (inactive) | > 100 µM (inactive) | > 100 µM (inactive) | > 100 µM (inactive) | > 100 µM (inactive) | > 100 µM (inactive) | > 100 µM (inactive) |  | > 100 µM (inactive) | > 100 µM (inactive) |  | > 100 µM (inactive) | > 100 µM (inactive) |  | > 100 µM (inactive) | > 100 µM (inactive) |
| O=C(Cc1ccccc1[N+](=O)[O-])C(CO)c1ccccc1[N+](=O)[O-] (centres undefined) | > 100 µM (inactive) | 89.5 µM (inactive) | > 100 µM (inactive) | 26.2 µM (inactive) | 45.3 µM (inactive) | 66.1 µM (inactive) | 96.4 µM (inactive) | > 100 µM (inactive) | > 100 µM (inactive) | 72.1 µM (inactive) | > 100 µM (inactive) |  | > 100 µM (inactive) | > 100 µM (inactive) | > 100 µM (inactive) | 91.8 µM (inactive) | 83 µM (inactive) |  | 95.9 µM (inactive) | 57.1 µM (inactive) |
| O=C(O)CCc1nn2c(nc1=O)sc1ccc3ccccc3c12 | > 100 µM (inactive) | > 100 µM (inactive) | > 100 µM (inactive) | > 100 µM (inactive) | > 100 µM (inactive) | > 100 µM (inactive) | > 100 µM (inactive) | > 100 µM (inactive) | > 100 µM (inactive) | > 100 µM (inactive) |  | > 100 µM (inactive) | > 100 µM (inactive) | > 100 µM (inactive) |  | > 100 µM (inactive) | > 100 µM (inactive) |  | > 100 µM (inactive) | > 100 µM (inactive) |
| COc1ccc(/C=N\N2C(=O)Cc3ccccc32)cc1 | 64.1 µM (inactive) | > 100 µM (inactive) | > 100 µM (inactive) | > 100 µM (inactive) | > 100 µM (inactive) | > 100 µM (inactive) | > 100 µM (inactive) | > 100 µM (inactive) | 51.6 µM (inactive) | > 100 µM (inactive) | > 100 µM (inactive) |  | > 100 µM (inactive) | 86.1 µM (inactive) | > 100 µM (inactive) | > 100 µM (inactive) | > 100 µM (inactive) |  | > 100 µM (inactive) |  |
| CCOC(=O)C1C/C(C)=C(/C)SCCCS1 (centres undefined) | > 100 µM (inactive) | > 100 µM (inactive) | > 100 µM (inactive) | > 100 µM (inactive) | 80 µM (inactive) | 98.9 µM (inactive) | > 100 µM (inactive) | > 100 µM (inactive) | > 100 µM (inactive) | > 100 µM (inactive) | > 100 µM (inactive) | 65.5 µM (inactive) | > 100 µM (inactive) | > 100 µM (inactive) | > 100 µM (inactive) | 68.5 µM (inactive) | > 100 µM (inactive) | > 100 µM (inactive) |  |  |
| O=c1n(-c2ccc(Cl)c(Cl)c2)c(=O)n(-c2ccc(Cl)c(Cl)c2)c(=O)n1-c1ccc(Cl)c(Cl)c1 | 3.67 µM (inactive) | 3.54 µM (inactive) | 2.78 µM (inactive) | 2.59 µM (inactive) | 1.5 µM (inactive) | 2.99 µM (inactive) | 3.94 µM (inactive) | 3.15 µM (inactive) | 2.47 µM (inactive) | 2.09 µM (inactive) | 2.15 µM (inactive) | 3.55 µM (inactive) | 4.16 µM (inactive) | 3.2 µM (inactive) | 3.63 µM (inactive) | 2.55 µM (inactive) | 4.27 µM (inactive) | 1.82 µM (inactive) |  |  |
| COc1ccc2c3c([nH]c2c1[N+](=O)[O-])C(C)=NCC3 | > 100 µM (inactive) | 62.7 µM (inactive) | > 100 µM (inactive) | 56.8 µM (inactive) | > 10 µM (inactive) | > 100 µM (inactive) | > 100 µM (inactive) | 53.1 µM (inactive) | 72.8 µM (inactive) | 77.4 µM (inactive) | > 100 µM (inactive) | 40.4 µM (inactive) | > 100 µM (inactive) | > 100 µM (inactive) | 61 µM (inactive) | 50.9 µM (inactive) | 19.5 µM (inactive) |  |  | > 100 µM (inactive) |
| C=C1C(=O)O[C@@H]2C[C@]3(C)CC[C@]4(C)[C@H](CC[C@@H]5[C@@]6(C)CCC(=O)C(C)(C)[C@@H]6CC[C@]54C)[C@H]3[C@H]12 [OCHRACEOLIDE A] | 23.5 µM (inactive) | 13.7 µM (inactive) | 13.7 µM (inactive) | 20.6 µM (inactive) | 23.7 µM (inactive) | 17.3 µM (inactive) | 18.3 µM (inactive) | 11.6 µM (inactive) | 17.8 µM (inactive) | 22.2 µM (inactive) | 22.4 µM (inactive) | 14.9 µM (inactive) | 18.9 µM (inactive) | 14.6 µM (inactive) | 18.4 µM (inactive) | 15.2 µM (inactive) | 16.9 µM (inactive) | 4.81 µM (inactive) |  |  |
